The values that follow come from PubChem BioAssay AID1996.

Molecules are shown by their SMILES. ≈ marks a conversion by molar mass, not a printed value.

For the series the following is noted: buffer; pH 7.4; 200.0 µM.
`COc1ccc(S(=O)(=O)N2CCSCC2)cc1C(N)=O` registered a kinetic solubility of 25 µg/mL (≈ 79 µM).

`C[N+]1(C)C2CCC1CC(OC(=O)c1ccccc1)C2.[Br-]` (stereo unspecified) came in with a solubility (kinetic) above 51 µg/mL. The value for `Cc1c(/C=C(\CC(=O)O)c2nc3ccccc3s2)cc(C#N)n1C` was 44.6 µg/mL (≈ 132 µM); that for `Cc1ccc2nc(-c3ccncc3)cc(C(=O)Nc3ccncc3)c2c1` was 3.5 µg/mL (≈ 10.3 µM). The value for `Cc1onc(-c2c(F)cccc2Cl)c1C(=O)Nc1ccc(S(=O)(=O)N2CCOCC2)cc1` was 2.3 µg/mL (≈ 4.79 µM); that for `O=C(NC(=S)Nc1ccc(Br)cc1F)C1CCCCC1` was 0.9 µg/mL (≈ 2.51 µM).

Compound `CSc1nc(-c2ccc(Cl)cc2)nc(N)c1C#N` displayed a kinetic solubility below 0.1 µg/mL.

Turning to `O=C(/C=C/c1ccccn1)c1cc(Cl)cc(Cl)c1O`, the solubility (kinetic) came out at 5.9 µg/mL (≈ 20.1 µM). The value for `O=C(Nc1ccccc1[N+](=O)[O-])C1(c2ccccc2)CCOCC1` was 42.3 µg/mL (≈ 130 µM); that for `CCCCn1c(SCC(=O)N2CCOCC2)nc2ccccc2c1=O` was above 54.2 µg/mL; that for `O=C1C(CSCc2ccccc2)NC(=S)N1c1ccccc1` (stereo unspecified) was 2.9 µg/mL (≈ 8.83 µM).

In turn, `CCOC(=O)C1CCN(C/C=C/c2ccccc2[N+](=O)[O-])CC1` came in with a kinetic solubility of 39.3 µg/mL (≈ 123 µM). Take `CCOC(=O)c1c(C=O)c2sc(C)cc2n1C`: the kinetic solubility was 1.5 µg/mL (≈ 5.97 µM). This solubility kinetic is about 26-fold lower than that of the compound before. The value for `COc1ccc(NC(=O)CN(C)Cc2cccs2)cc1Cl` was 42.1 µg/mL (≈ 130 µM); that for `CNC(=O)c1ccc(NC(=O)Nc2ccccc2)cc1` was 6.6 µg/mL (≈ 24.5 µM); that for `COc1ccc(CN2CCN(C(=O)c3ccc4c(c3)CCC4)CC2)cc1OC` was 39.5 µg/mL (≈ 104 µM).

Take `COc1ccc(NC(=O)c2sc3nc(C)cc(C)c3c2N)cc1`: the kinetic solubility was below 0.2 µg/mL. The value for `COCCCN1CN=C(Nc2nc3ccccc3o2)NC1` was above 43.4 µg/mL; that for `Cc1cc(C)cc(NC(=O)CCN2C(=O)c3ccccc3C2=O)c1` was 2.5 µg/mL (≈ 7.76 µM). The value for `CC(C)Cn1cnc2c1c(=O)n(C)c(=O)n2C` was above 35.4 µg/mL; that for `Cc1ccc(N=Cc2cc3c(cc2[N+](=O)[O-])OCO3)cc1[N+](=O)[O-]` was 20.5 µg/mL (≈ 62.3 µM). Then `CCc1sc(C(=O)Nc2ccc3nc(C)sc3c2)cc1C`, with 1.6 µg/mL (≈ 5.06 µM); and `Oc1ccc2ccccc2c1CNc1ccc(Br)cc1`, with 5.5 µg/mL (≈ 16.8 µM); and `COc1ccc(CCNC(=O)c2ccc3c(c2)OCO3)cc1`, with 2.5 µg/mL (≈ 8.35 µM). `COC(=O)Cn1c2ccccc2c2nc3ccccc3nc21` registered a solubility (kinetic) of 0.2 µg/mL (≈ 0.687 µM). Then `COc1ccccc1NC(=O)/C=C\c1ccco1`, with 25.8 µg/mL (≈ 106 µM). Consider `O=C(CCCOc1ccccc1)NCCc1nc2ccccc2[nH]1`, for which the kinetic solubility was above 48.5 µg/mL. Then `CC(NC(=O)c1ccc(Br)o1)c1ccc(-n2ccnc2)cc1` (stereo unspecified), with above 54 µg/mL. Then `CC(NC(=S)Nc1ccccc1)C(c1cccs1)N1CCOCC1` (stereo unspecified), with 3.1 µg/mL (≈ 8.57 µM); and `Fc1ccccc1Oc1nc(-c2ccncc2)nc2ccccc12`, with below 0.2 µg/mL; and `CSc1nc(N)nc(C2CC2)n1`, with 24.4 µg/mL (≈ 134 µM). The value for `CC(C)C(OC(=O)c1cccs1)C(=O)NCc1ccccc1` (stereo unspecified) was 29.4 µg/mL (≈ 92.6 µM). For the compound `COC(=O)c1ccc(N/C=C/C(=O)c2ccccc2)cc1`, the kinetic solubility came to 1.5 µg/mL (≈ 5.33 µM). `COc1ccc(Cl)cc1C(=O)NN=C1CCCC1` displayed a kinetic solubility above 40 µg/mL.

Compound `Cc1ccc(NC(=S)Nc2cccc3cnccc23)cc1` showed a kinetic solubility of 30 µg/mL (≈ 102 µM). In turn, `CCOC(=O)c1c(-c2ccc(C)cc2)csc1/N=C/N(C)C` showed a kinetic solubility above 47.5 µg/mL. Then `CCN1CCN(c2ccc(S(=O)(=O)N3CCOCC3)cc2NC(=O)c2cccc([N+](=O)[O-])c2)CC1`, with above 75.5 µg/mL; and `N#Cc1c(Nc2ccccc2)s[nH]c1=O`, with above 32.6 µg/mL; and `CC(C)(C)C(=O)Nc1ccc(S(=O)(=O)Nc2nccs2)cc1`, with above 50.9 µg/mL. `O=C(NCC1COc2ccccc2O1)c1cccs1` (stereo unspecified) registered a kinetic solubility of 39.7 µg/mL (≈ 144 µM).

Regarding `CC1CCCCC12NC(=O)N(CC(=O)N1CCN(c3ccccc3)CC1)C2=O` (stereo unspecified), the solubility (kinetic) was above 57.7 µg/mL.

The term solubility (kinetic) denotes the concentration staying in solution when a stock, usually in DMSO, is diluted into the medium.
